Legend:
[1] = system: patients experiencing ST-segment elevation myocardial infarction (STEMI); assay: […] Phase III study: clinical outcomes (death, reinfarction, revascularization, stent thrombosis) at 30 days and 8 months; type: in vivo, human; details: for probability of death/MI: within eight months after treatment, intent-to-treat population
Method: (§1) The inclusion criteria were (1) chest pain for longer than 30 minutes with an electrocardiographic ST-segment elevation of 1 mm or greater in two or more contiguous electrocardiogram leads, or with a new left bundle-branch block, and (2) admission either within 12 hours of symptom onset or between 12 and 24 hours after onset with evidence of continuing ischemia. The exclusion criteria included administration of fibrinolytics in the previous 30 days, major surgery within 15 days, and active bleeding or previous stroke in the last six months. Immediately after eligibility criteria were met and before the visualization of coronary arteries through angiography, the treating physician at each investigational site performed open-label assignments of study treatments via sealed envelopes.
(§2) This type of regimen is described in U.S. Pat. No. 6,770,660. Abciximab was administered in a 0.25 mg/kg bolus, followed by 0.125 μg/kg/min continuous infusion for 12 hours. The administration of both drugs began at first medical contact, before arterial sheath insertion. Heparin was given at 40 to 70 U/kg, targeting an activated clotting time of at least 200 seconds. Patients received aspirin (160-325 mg orally or 250 mg intravenously, followed by 80-125 mg/d orally indefinitely) and clopidogrel (300 mg orally and then 75 mg/d for at least three months).
(§3) A 12-lead electrocardiogram was recorded before the procedure and 90 minutes after the last balloon inflation in the infarct-related artery. Follow-up visits were scheduled at one, four, and eight months.
(§4) The data for all patients with primary end-point events were reviewed by an independent adjudication committee whose members were blinded to treatment assignments. Events adjudication was performed separately by two members, and in case of disagreement, the opinion of the third member was obtained and the final decision taken by consensus. The committee was also responsible for the adjudication of all clinical events according to the Academic Research Consortium.^18
(§5) Discrete data were summarized as frequencies, and comparisons were made with the likelihood-ratio χ^2 test or Fisher exact test. Continuous data were expressed as mean (SD) or median and interquartile range according to their distribution; comparisons were made with a one-way analysis of variance or the Kruskal-Wallis test.

[2] = system: patients experiencing ST-segment elevation myocardial infarction (STEMI); assay: […] primary end point: at least 50% resolution of ST-segment elevation on 12-lead electrocardiogram 90 minutes after PCI; type: in vivo, human; details: for percentage of patients achieving at least 50% ST-segment resolution / patients achieving at least 50% ST-segment resolution: intention-to-treat analysis, within 90 minutes following PCI; for patients achieving at least 50% ST-segment resolution: out of 361 patients
Method: as §1, §2, §3
Changes in the ST-segment of the electrocardiogram were evaluated cumulatively before and 90 minutes after intervention. ST-segment elevation was measured to the nearest 0.5 mm at 60 milliseconds after the J point by a single experienced cardiologist who was blinded to treatment assignments. […] Quantitative angiographic analyses were performed with a validated edge-detection system (CAAS II; Pie Medical, Maastricht, the Netherlands), and coronary flow was classified according to Thrombolysis in Myocardial Infarction (TIMI) criteria. Angiographic analyses and TIMI grading were performed by one independent cardiologist who was blinded to treatment assignments.
This was based on both intention-to-treat and per-protocol principles and was applied to an exploratory analysis across several prespecified subgroups. The Cochran-Mantel-Haenszel χ^2 test was performed to evaluate possible imbalances of the relative risk among different recruiting centers.

[3] = system: patients experiencing ST-segment elevation myocardial infarction (STEMI); assay: MULTISTRATEGY safety analysis: bleeding, transfusion, thrombocytopenia and thrombocytopenia-associated mortality; details: for Major bleeding / Minor bleedng / Moderate thrombocytoperia (<100000 cells/mm^3) / Red blood cells transfusion ≧1 Units / Red blood cells transfusion ≧2 Units / Severe thrombocytoperia (<50000 cells/mm^3): At 30 d, safety analysis
Method: as §1, §2, §4, §5

[4] = At 8 mo, number of patients with event
[5] = At 30 d, number of patients with event

Molecule: CCCCS(=O)(=O)N[C@@H](Cc1ccc(OCCCCC2CCNCC2)cc1)C(=O)O.Cl.O [Tirofiban Plus Uncoated Stent]
- Clinically driven target-vessel revascularization ([1]; At 8 mo, Kaplan-Meier estimate): (9.1) %
- Composite of death, reinfarction, or target-vessel revascularization ([1]; At 8 mo, Kaplan-Meier estimate): (12.9) %
- Death ([1]; At 8 mo, Kaplan-Meier estimate): (3.8) %
- Death or reinfarction ([1]; At 8 mo, Kaplan-Meier estimate): (6.5) %
- Definite or probable or possible stent thrombosis ([1]; At 8 mo, Kaplan-Meier estimate): (4.3) %
- Definite or probable stent thrombosis ([1]; At 8 mo, Kaplan-Meier estimate): (3.2) %
- Definite stent thrombosis ([1]; At 8 mo, Kaplan-Meier estimate): (2.2) %
- Possible stent thrombosis ([1]; At 8 mo, Kaplan-Meier estimate): (1.6) %
- Reinfarction ([1]; At 8 mo, Kaplan-Meier estimate): (4.3) %
- Clinically driven target-vessel revascularization [1, 4]: 17 No.
- Composite of death, reinfarction, or target-vessel revascularization [1, 4]: 24 No.
- Death [1, 4]: 7 No.
- Death or reinfarction [1, 4]: 12 No.
- Definite or probable or possible stent thrombosis [1, 4]: 8 No.
- Definite or probable stent thrombosis [1, 4]: 6 No.
- Definite stent thrombosis [1, 4]: 4 No.
- Possible stent thrombosis [1, 4]: 3 No.
- Reinfarction [1, 4]: 8 No.
- Clinically driven target-vessel revascularization ([1]; At 30 d, Kaplan-Meier estimate): (1.6) %
- Composite of death, reinfarction, or target-vessel revascularization ([1]; At 30 d, Kaplan-Meier estimate): (3.8) %
- Death ([1]; At 30 d, Kaplan-Meier estimate): (1.1) %
- Death or reinfarction ([1]; At 30 d, Kaplan-Meier estimate): (3.8) %
- Definite or probable stent thrombosis ([1]; At 30 d, Kaplan-Meier estimate): (2.7) %
- Definite stent thrombosis ([1]; At 30 d, Kaplan-Meier estimate): (1.6) %
- Probable stent thrombosis ([1]; At 30 d, Kaplan-Meier estimate): (1.1) %
- Reinfarction ([1]; At 30 d, Kaplan-Meier estimate): (2.7) %
- Clinically driven target-vessel revascularization [1, 5]: 3 No.
- Composite of death, reinfarction, or target-vessel revascularization [1, 5]: 7 No.
- Death [1, 5]: 2 No.
- Death or reinfarction [1, 5]: 7 No.
- Definite or probable stent thrombosis [1, 5]: 5 No.
- Definite stent thrombosis [1, 5]: 3 No.
- Probable stent thrombosis [1, 5]: 2 No.
- Reinfarction [1, 5]: 5 No.

Molecule: CCCCS(=O)(=O)N[C@@H](Cc1ccc(OCCCCC2CCNCC2)cc1)C(=O)O.Cl [Tirofiban, N-(butylsulfonyl)-O-[4-(4-piperidinyl)butyl]-tyrosine monohydrochloride]
- Clinically driven target-vessel revascularization ([1]; At 8 mo, Kaplan-Meier estimate): (6.2) %
- Composite of death, reinfarction, or target-vessel revascularization ([1]; At 8 mo, Kaplan-Meier estimate): (9.9) %
- Death ([1]; At 8 mo, Kaplan-Meier estimate): (3.0) %
- Death or reinfarction ([1]; At 8 mo, Kaplan-Meier estimate): (5.9) %
- Definite or probable or possible stent thrombosis ([1]; At 8 mo, Kaplan-Meier estimate): (3.8) %
- Definite or probable stent thrombosis ([1]; At 8 mo, Kaplan-Meier estimate): (3.2) %
- Definite stent thrombosis ([1]; At 8 mo, Kaplan-Meier estimate): (2.7) %
- Possible stent thrombosis ([1]; At 8 mo, Kaplan-Meier estimate): (0.8) %
- Reinfarction ([1]; At 8 mo, Kaplan-Meier estimate): (4.3) %
- Clinically driven target-vessel revascularization [1, 4]: 23 No.
- Composite of death, reinfarction, or target-vessel revascularization [1, 4]: 37 No.
- Death [1, 4]: 11 No.
- Death or reinfarction [1, 4]: 22 No.
- Definite or probable or possible stent thrombosis [1, 4]: 14 No.
- Definite or probable stent thrombosis [1, 4]: 12 No.
- Definite stent thrombosis [1, 4]: 10 No.
- Possible stent thrombosis [1, 4]: 3 No.
- Reinfarction [1, 4]: 16 No.
- Clinically driven target-vessel revascularization ([1]; At 30 d, Kaplan-Meier estimate): (2.2) %
- Composite of death, reinfarction, or target-vessel revascularization ([1]; At 30 d, Kaplan-Meier estimate): (4.0) %
- Death ([1]; At 30 d, Kaplan-Meier estimate): (1.1) %
- Death or reinfarction ([1]; At 30 d, Kaplan-Meier estimate): (3.8) %
- Definite or probable stent thrombosis ([1]; At 30 d, Kaplan-Meier estimate): (2.4) %
- Definite stent thrombosis ([1]; At 30 d, Kaplan-Meier estimate): (1.9) %
- Probable stent thrombosis ([1]; At 30 d, Kaplan-Meier estimate): (0.5) %
- Reinfarction ([1]; At 30 d, Kaplan-Meier estimate): (2.7) %
- Clinically driven target-vessel revascularization [1, 5]: 8 No.
- Composite of death, reinfarction, or target-vessel revascularization [1, 5]: 15 No.
- Death [1, 5]: 4 No.
- Death or reinfarction [1, 5]: 14 No.
- Definite or probable stent thrombosis [1, 5]: 9 No.
- Definite stent thrombosis [1, 5]: 7 No.
- Probable stent thrombosis [1, 5]: 2 No.
- Reinfarction [1, 5]: 10 No.
- incidence of MACE ([1]; At 30 days): 4.0%
- incidence of MACE ([1]; At eight months): 9.9%
- probability of death/MI [1]: 5.9%
- recovery from ST-segment elevation after coronary intervention in comparison with abciximab ([2]; consistent across recruiting centers and prespecified subgroups): noninferior
- percentage of patients achieving at least 50% ST-segment resolution [2]: 85.3%
- patients achieving at least 50% ST-segment resolution [2]: 308 patients

Molecule: Abciximab: inhibitor of the glycoprotein (GP) IIb/IIIa receptor complex; comparator drug
- Clinically driven target-vessel revascularization ([1]; At 8 mo, Kaplan-Meier estimate): (7.3) %
- Composite of death, reinfarction, or target-vessel revascularization ([1]; At 8 mo, Kaplan-Meier estimate): (12.4) %
- Death ([1]; At 8 mo, Kaplan-Meier estimate): (4.0) %
- Death or reinfarction ([1]; At 8 mo, Kaplan-Meier estimate): (7.5) %
- Definite or probable or possible stent thrombosis ([1]; At 8 mo, Kaplan-Meier estimate): (4.3) %
- Definite or probable stent thrombosis ([1]; At 8 mo, Kaplan-Meier estimate): (3.5) %
- Definite stent thrombosis ([1]; At 8 mo, Kaplan-Meier estimate): (2.7) %
- Possible stent thrombosis ([1]; At 8 mo, Kaplan-Meier estimate): (1.1) %
- Reinfarction ([1]; At 8 mo, Kaplan-Meier estimate): (3.5) %
- Clinically driven target-vessel revascularization [1, 4]: 27 No.
- Composite of death, reinfarction, or target-vessel revascularization [1, 4]: 46 No.
- Death [1, 4]: 15 No.
- Death or reinfarction [1, 4]: 28 No.
- Definite or probable or possible stent thrombosis [1, 4]: 16 No.
- Definite or probable stent thrombosis [1, 4]: 13 No.
- Definite stent thrombosis [1, 4]: 10 No.
- Possible stent thrombosis [1, 4]: 4 No.
- Reinfarction [1, 4]: 13 No.
- Clinically driven target-vessel revascularization ([1]; At 30 d, Kaplan-Meier estimate): (1.6) %
- Composite of death, reinfarction, or target-vessel revascularization ([1]; At 30 d, Kaplan-Meier estimate): (4.3) %
- Death ([1]; At 30 d, Kaplan-Meier estimate): (2.4) %
- Death or reinfarction ([1]; At 30 d, Kaplan-Meier estimate): (3.8) %
- Definite or probable stent thrombosis ([1]; At 30 d, Kaplan-Meier estimate): (2.2) %
- Definite stent thrombosis ([1]; At 30 d, Kaplan-Meier estimate): (1.3) %
- Probable stent thrombosis ([1]; At 30 d, Kaplan-Meier estimate): (0.8) %
- Reinfarction ([1]; At 30 d, Kaplan-Meier estimate): (1.3) %
- Clinically driven target-vessel revascularization [1, 5]: 6 No.
- Composite of death, reinfarction, or target-vessel revascularization [1, 5]: 16 No.
- Death [1, 5]: 9 No.
- Death or reinfarction [1, 5]: 14 No.
- Definite or probable stent thrombosis [1, 5]: 8 No.
- Definite stent thrombosis [1, 5]: 5 No.
- Probable stent thrombosis [1, 5]: 3 No.
- Reinfarction [1, 5]: 5 No.
- incidence of MACE ([1]; At 30 days): 4.37%
- incidence of MACE ([1]; At eight months): 12.4%
- probability of death/MI [1]: 7.5%
- Major bleeding [3]: (1.6) %
- Minor bleedng [3]: (6.2) %
- Moderate thrombocytoperia (<100000 cells/mm^3) [3]: (1.6) %
- Red blood cells transfusion ≧1 Units [3]: (2.2) %
- Red blood cells transfusion ≧2 Units [3]: (2.2) %
- Severe thrombocytoperia (<50000 cells/mm^3) [3]: (2.4) %
- Major bleeding ([3]; number of patients): 6 No.
- Minor bleedng ([3]; number of patients): 23 No.
- Moderate thrombocytoperia (<100000 cells/mm^3) ([3]; number of patients): 6 No.
- Red blood cells transfusion ≧1 Units ([3]; number of patients): 8 No.
- Red blood cells transfusion ≧2 Units ([3]; number of patients): 8 No.
- Severe thrombocytoperia (<50000 cells/mm^3) ([3]; number of patients): 9 No.
- TIMI major and minor bleeding ([3]; At 30 days): 7.8%
- incidence of severe or moderate thrombocytopenia ([3]; At 30 days): 4.0%
- mortality rates of nonthrombocytopenic patients ([3]; HDB tirofiban compared with abciximab, follow-up, FIG. 3): virtually identical
- patients with drug-induced thrombocytopenia who died ([3]; within eight months, FIG. 3): 20%
- percentage of patients achieving at least 50% ST-segment resolution [2]: 83.6%
- patients achieving at least 50% ST-segment resolution [2]: 302 patients

Source: patent US20120059036A1, “METHOD FOR REDUCING THROMBOCYTOPENIA AND THROMBOCYTOPENIA-ASSOCIATED MORTALITY” (priority 2008, published 2012)
